Bounds are passed on as bounds.

From patent publication US20260085062A1, “NOVEL COMPOUNDS AS CK2 INHIBITORS” (Cambridge Enterprise Limited, priority 2022, published 2026) come the findings set out here.

Experiment [1] has as its target T1, intracellular CK2α (Homo sapiens, UniProt P19784).
T1 construct: host or cells: HCT116 (ATCC CCL-247)
As to the kind of experiment: Cell-based NanoBRET assay for inhibitor binding to intracellular CK2α. Particulars: HCT116 cells transiently transfected with CSNK2A2-NanoLuc fusion vector; Tracer K-5; 2 h; read-out: Assay 3: NanoBRET ™ assay for binding to intracellular CK2α. The procedure, abridged: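 Apparent affinity came from BRET ratio (acceptor/donor ×1,000), with donor read at 450 nm and acceptor at 610 or 630 nm. Compounds competed off a tracer added at fixed concentration to cells carrying a NanoLuc-CK2α fusion.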
A general note: Bioluminescence resonance energy transfer reports proximity on the nanometre scale.

Experiment [2] addresses T2, CLK2 (Homo sapiens, UniProt P49760).
T2 construct: purchased Carna Biosciences 04-127
Put plainly: Biochemical assay for inhibitors of CLK2 kinase activity (ADP-Glo). Particulars: 20 nM CLK2, 50 μM peptide substrate, 100 μM ATP, read-out: Assay 2: CLK2 Enzyme IC50. (In ADP-Glo the light output rises with the ADP produced.)

The target of experiment [3] is T3, CK2α (Homo sapiens, UniProt P68400).
T3 construct: CK2α (residues 2-329) was produced in Escherichia coli BL21 (DE3) for kinase activity screening; His6 (N, cleaved yes); made in house; host or cells: Escherichia coli BL21 (DE3)
T3 sequence (P68400 2-329): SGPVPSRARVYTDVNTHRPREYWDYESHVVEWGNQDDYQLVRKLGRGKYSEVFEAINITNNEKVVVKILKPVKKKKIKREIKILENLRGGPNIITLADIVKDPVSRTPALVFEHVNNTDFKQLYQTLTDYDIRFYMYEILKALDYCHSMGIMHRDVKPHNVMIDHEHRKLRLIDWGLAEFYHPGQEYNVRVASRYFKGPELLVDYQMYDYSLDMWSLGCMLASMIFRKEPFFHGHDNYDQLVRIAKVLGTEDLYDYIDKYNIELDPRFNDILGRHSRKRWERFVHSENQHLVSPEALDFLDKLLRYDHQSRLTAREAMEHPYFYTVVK
Put plainly: Biochemical assay for inhibitors of CK2α kinase activity (ADP-Glo). Particulars: 0.2 nM CK2α, 50 μM peptide substrate, 15 μM ATP, read-out: Assay 1: CK2α Enzyme IC50.

T1 sequence (P19784 whole entry): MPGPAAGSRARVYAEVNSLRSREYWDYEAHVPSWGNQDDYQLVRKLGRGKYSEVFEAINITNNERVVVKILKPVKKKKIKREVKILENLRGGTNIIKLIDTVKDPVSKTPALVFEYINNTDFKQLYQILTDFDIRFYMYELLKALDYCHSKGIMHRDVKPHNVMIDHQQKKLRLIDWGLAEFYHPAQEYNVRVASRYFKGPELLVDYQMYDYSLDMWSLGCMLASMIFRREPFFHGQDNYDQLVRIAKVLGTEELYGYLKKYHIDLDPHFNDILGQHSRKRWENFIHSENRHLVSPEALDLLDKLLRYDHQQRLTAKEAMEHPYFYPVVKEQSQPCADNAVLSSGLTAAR
T2 sequence (P49760 whole entry): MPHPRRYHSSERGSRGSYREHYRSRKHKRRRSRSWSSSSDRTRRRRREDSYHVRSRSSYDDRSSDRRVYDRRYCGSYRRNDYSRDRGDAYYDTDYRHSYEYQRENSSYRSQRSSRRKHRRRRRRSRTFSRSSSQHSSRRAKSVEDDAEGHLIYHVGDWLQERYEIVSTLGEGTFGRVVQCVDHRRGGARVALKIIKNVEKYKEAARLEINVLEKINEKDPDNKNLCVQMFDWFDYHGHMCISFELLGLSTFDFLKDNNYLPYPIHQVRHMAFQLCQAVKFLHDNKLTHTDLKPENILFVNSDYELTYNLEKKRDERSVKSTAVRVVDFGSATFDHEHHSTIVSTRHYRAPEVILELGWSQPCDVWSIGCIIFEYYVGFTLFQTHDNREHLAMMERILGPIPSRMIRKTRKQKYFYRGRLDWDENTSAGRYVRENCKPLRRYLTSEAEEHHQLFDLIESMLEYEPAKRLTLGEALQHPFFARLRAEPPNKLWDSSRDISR

Turning to `O=C(CCNCc1ccc(OC(F)(F)F)c(Cl)c1)NCCCNc1cc(-c2ccncc2)nc2[nH]ncc12` [Example 185, 3-((3-chloro-4-(trifluoromethoxy)benzyl)amino)-N-(3-((6-(pyridin-4-yl)-1H-pyrazolo[3,4-b]pyridin-4-yl)amino)propyl)propanamide], the values for the IC50 in experiment [1], in experiment [2] and in experiment [3] were 0.106 µM, 0.787 µM and 0.00076 µM, respectively.
On to `FC(F)(F)c1ccc2[nH]c(CNCCCCOCCNc3cc(-c4ccnnc4)cc4[nH]nnc34)cc2c1` [Example 100, 6-(pyridazin-4-yl)-N-(2-(4-(((5-(trifluoromethyl)-1H-indol-2-yl)methyl)amino)butoxy)ethyl)-1H-benzo[d][1,2,3]triazol-4-amine], for which the IC50 in experiment [1] turned out to be 1.41 µM; in experiment [2], 22.9 µM; in experiment [3] it was 0.0223 µM.
For `Cn1c(CNCCC(=O)NCCCNc2cc(-n3cnnc3)cc3[nH]ncc23)cc2cc(C(F)(F)F)ccc21` [Example 38, N-(3-((6-(4H-1,2,4-triazol-4-yl)-1H-indazol-4-yl)amino)propyl)-3-(((1-methyl-5-(trifluoromethyl)-1H-indol-2-yl)methyl)amino)propanamide], in that order: 0.792 µM, 0.121 µM and 0.00053 µM.
The corresponding values for `FC(F)(F)c1ccc2[nH]c(CNCCCCOCCNc3cc(-n4cnnc4)cc4[nH]ncc34)cc2c1` [Example 49, 6-(4H-1,2,4-triazol-4-yl)-N-(2-(4-(((5-(trifluoromethyl)-1H-indol-2-yl)methyl)amino)butoxy)ethyl)-1H-indazol-4-amine] are 0.106 µM, 0.0905 µM and 0.00044 µM.
For `Cc1nncn1-c1cc(NCCOCCCCNCc2cc3cc(C(F)(F)F)ccc3[nH]2)c2cn[nH]c2c1` [Example 86, 6-(3-methyl-4H-1,2,4-triazol-4-yl)-N-(2-(4-(((5-(trifluoromethyl)-1H-indol-2-yl)methyl)amino)butoxy)ethyl)-1H-indazol-4-amine], in that order: 1.35 µM, 1.67 µM and 0.00636 µM.
Take `N#Cc1cc(NCCCNC(=O)CCNCc2ccc(OC(F)(F)F)c(Cl)c2)c2cn[nH]c2c1` [Example 160, 3-((3-chloro-4-(trifluoromethoxy)benzyl)amino)-N-(3-((6-cyano-1H-indazol-4-yl)amino)propyl)propanamide]: the IC50 in experiment [1] came to 1.11 µM; in experiment [2] it was 0.221 µM; in experiment [3] it was 0.0191 µM.
The corresponding values for `O=C(CCNCc1ccc(-c2ccccc2)c(Cl)c1)NCCCNc1cc(-c2ccncc2)cc2[nH]ncc12` [Example 1, 3-(((2-Chloro-[1,1′-biphenyl]-4-yl)methyl)amino)-N-(3-((6-(pyridin-4-yl)-1H-indazol-4-yl)amino)propyl)propanamide] are 0.124 µM, 0.226 µM and 0.00138 µM.
The corresponding values for `O=C(CCNCc1ccc(-c2ccccc2)c(Cl)c1)NCCCNc1cc(-c2cnoc2)cc2[nH]ncc12` [Example 28, 3-(((2-chloro-[1,1′-biphenyl]-4-yl)methyl)amino)-N-(3-((6-(isoxazol-4-yl)-1H-indazol-4-yl)amino)propyl)propanamide] are 0.0706 µM, 0.107 µM and 0.00054 µM.
For `c1cc2[nH]c(CNCCCCOC3CN(c4cc(-n5cnnc5)cc5[nH]ncc45)C3)cc2cc1OC1CCC1` [Example 124, 4-((1-(6-(4H-1,2,4-triazol-4-yl)-1H-indazol-4-yl)azetidin-3-yl)oxy)-N-((5-cyclobutoxy-1H-indol-2-yl)methyl)butan-1-amine], in that order: 1.99 µM, 0.134 µM and 0.00744 µM.
Regarding `CN(C)C(=O)c1cc(NCCCNC(=O)CCNCc2ccc(-c3ccccc3)c(Cl)c2)c2cn[nH]c2c1` [Example 62, 4-((3-(3-(((2-chloro-[1,1'-biphenyl]-4-yl)methyl)amino)propanamido)propyl)amino)-N,N-dimethyl-1H-indazole-6-carboxamide], the IC50 is 29.6 µM in experiment [1], 14.3 µM in experiment [2] and 0.182 µM in experiment [3].
The corresponding values for `O=C(CCNCc1ccc(OC(F)(F)F)c(Cl)c1)NCCCNc1cc(-c2cc[nH]c(=O)c2)cc2[nH]ncc12` [Example 31, 3-((3-chloro-4-(trifluoromethoxy)benzyl)amino)-N-(3-((6-(2-oxo-1,2-dihydropyridin-4-yl)-1H-indazol-4-yl)amino)propyl)propanamide] are 0.753 µM, 0.526 µM and 0.00032 µM.
The corresponding values for `N#CCc1cc(CNCCCCOC2CN(c3cc(-n4cnnc4)cc4[nH]ncc34)C2)cc(OC(F)(F)F)c1` [Example 147, 2-(3-(((4-((1-(6-(4H-1,2,4-triazol-4-yl)-1H-indazol-4-yl)azetidin-3-yl)oxy)butyl)amino)methyl)-5-(trifluoromethoxy)phenyl)acetonitrile] are 0.528 µM, 0.3 µM and 0.0088 µM.
The corresponding values for `Clc1cc(CNCCc2cn(CCNc3cc(-n4cnnc4)cc4[nH]ncc34)nn2)ccc1-c1ccccc1` [Example 14, N-(2-(4-(2-(((2-chloro-[1,1′-biphenyl]-4-yl)methyl)amino)ethyl)-1H-1,2,3-triazol-1-yl)ethyl)-6-(4H-1,2,4-triazol-4-yl)-1H-indazol-4-amine] are 2.12 µM, 0.322 µM and 0.0016 µM.
`Nc1cc(-c2cc(NCCCNC(=O)CCNCc3ccc(OC(F)(F)F)c(Cl)c3)c3cn[nH]c3c2)cnn1` [Example 188, N-(3-((6-(6-aminopyridazin-4-yl)-1H-indazol-4-yl)amino)propyl)-3-((3-chloro-4-(trifluoromethoxy)benzyl)amino)propanamide]: the IC50 in experiment [1] is 0.516 µM; in experiment [2] it was 0.0529 µM; in experiment [3], 0.0005 µM.
The corresponding values for `Cc1nncn1-c1cc(NCCCNC(=O)CCNCc2ccc(-c3ccccc3)c(Cl)c2)c2cn[nH]c2c1` [Example 71, 3-(((2-chloro-[1,1′-biphenyl]-4-yl)methyl)amino)-N-(3-((6-(3-methyl-4H-1,2,4-triazol-4-yl)-1H-indazol-4-yl)amino)propyl)propanamide] are 2.16 µM, 0.416 µM and 0.00137 µM.
`O=C(CCNCCCNCc1ccc(OC(F)(F)F)c(Cl)c1)Nc1cc(-n2cnnc2)cc2[nH]ncc12` [Example 66, N-(6-(4H-1,2,4-triazol-4-yl)-1H-indazol-4-yl)-3-((3-((3-chloro-4-(trifluoromethoxy)benzyl)amino)propyl)amino)propanamide]: the IC50 in experiment [1] was determined as 15.6 µM; in experiment [2], 1 µM; in experiment [3] it was 0.176 µM.
For `O=C(CCNCc1ccc(OC(F)(F)F)c(Cl)c1)NCCCNCc1cc(-n2cnnc2)cc2[nH]ncc12` [Example 172, N-(3-(((6-(4H-1,2,4-triazol-4-yl)-1H-indazol-4-yl)methyl)amino)propyl)-3-((3-chloro-4-(trifluoromethoxy)benzyl)amino)propanamide], in that order: over 50 µM, 44.6 µM and 0.126 µM.
Consider `O=C(CCNCc1ccc(-c2ccccc2)c(Cl)c1)NCCCNc1cc(-c2nn[nH]n2)cc2[nH]ncc12` [Example 79, N-(3-((6-(2H-tetrazol-5-yl)-1H-indazol-4-yl)amino)propyl)-3-(((2-chloro-[1,1′-biphenyl]-4-yl)methyl)amino)propanamide], for which the IC50 in experiment [1] stood at 5.09 µM; in experiment [2], 0.407 µM; in experiment [3], 0.00033 µM.
`N#Cc1cc(NCCOCCCCNCc2cc3cc(C(F)(F)F)ccc3[nH]2)c2cn[nH]c2c1` [Example 96, 4-((2-(4-(((5-(trifluoromethyl)-1H-indol-2-yl)methyl)amino)butoxy)ethyl)amino)-1H-indazole-6-carbonitrile]: the IC50 in experiment [1] turned out to be 2 µM; in experiment [2], 0.227 µM; in experiment [3], 0.027 µM.
The corresponding values for `Cc1c(-c2ccncc2)cc(NCCOCCCCNCc2cc(F)c(OC(F)(F)F)c(F)c2)c2cn[nH]c12` [Example 179, N-(2-(4-((3,5-difluoro-4-(trifluoromethoxy)benzyl)amino)butoxy)ethyl)-7-methyl-6-(pyridin-4-yl)-1H-indazol-4-amine] are 1.45 µM, 1.93 µM and 0.0427 µM.
As for `O=C(CCNCc1ccc(-c2ccccc2)c(Cl)c1)NCCCNc1cc(-n2cncn2)cc2[nH]ncc12` [Example 4, N-(3-((6-(1H-1,2,4-triazol-1-yl)-1H-indazol-4-yl)amino)propyl)-3-(((2-chloro-[1,1′-biphenyl]-4-yl)methyl)amino)propanamide], the IC50 in experiment [1] is 0.242 µM; in experiment [2] it was 1.01 µM; in experiment [3], 0.00363 µM.
